From publication PMC12274840 (The Journal of Biological Chemistry, 2025)
Several values for one entry are separate records, joined by “and”; a condition that tells them apart may be missing. Equal entries are not always repeated. Where two headings read alike, the source gives them in different places.

Assays:
[1] = test system: E. coli KA797 cells carrying CTX-M-14 position 105 library; assay type: cell-based
[2] = test system: E. coli KA797 cells carrying pUK21 with TEM-1 Y105R; assay type: cell-based, Escherichia coli; conditions: in combination with 100 μg/ml carbenicillin
[3] = test system: E. coli KA797 cells carrying pUK21 with CTX-M-14 Y105G; assay type: cell-based, Escherichia coli; conditions: in combination with 100 μg/ml carbenicillin
[4] = test system: E. coli KA797 cells carrying BlaC position 105 library; assay type: cell-based, Escherichia coli; conditions: for Fi AVG (average fitness): average of replicates
[5] = test system: E. coli KA797 cells carrying pUK21 with BlaC I105R; assay type: cell-based, Escherichia coli; conditions: in combination with 100 μg/ml carbenicillin
[6] = test system: E. coli KA797 cells carrying pUK21 with BlaC I105G; assay type: cell-based, Escherichia coli; conditions: in combination with 100 μg/ml carbenicillin
[7] = test system: E. coli KA797 cells carrying pUK21 with CTX-M-14 WT (Tat); experiment: microbe, parasite or virus in culture; assay type: cell-based; conditions: in combination with 100 μg/ml carbenicillin
[8] = test system: E. coli KA797 cells carrying pUK21 with TEM-1 Y105G; assay type: cell-based, Escherichia coli; conditions: in combination with 100 μg/ml carbenicillin
TEM-1 Y105G = TEM-1 Y105G (Escherichia coli, UniProt P62593, Y103G); experiment: In vitro inhibition of nitrocefin hydrolysis and simulation of inhibition curves, TEM-1 Y105G; assay type: biochemical; conditions: clavulanic acid, simulation Eq 2/8
[9] = test system: E. coli KA797 cells carrying pUK21 with NmcA (pelB/Sec); experiment: microbe, parasite or virus in culture; assay type: cell-based; conditions: in combination with 25 μg/ml carbenicillin
[10] = test system: E. coli KA797 cells carrying pUK21 with BlaC WT (Tat); experiment: microbe, parasite or virus in culture; assay type: cell-based; conditions: in combination with 100 μg/ml carbenicillin
BlaC WT = molecular target: T1, BlaC WT (Mycobacterium tuberculosis, UniProt P9WKD3); assay type: biochemical
T1 construct: correspond to residue numbers 41-307 of BlaC (Uniprot entry P9WKD3-1); His tag with TEV cleavage site (N); made in house; host or cells: E. coli BL21 (DE3) pLysS
T1 sequence (P9WKD3 41-307): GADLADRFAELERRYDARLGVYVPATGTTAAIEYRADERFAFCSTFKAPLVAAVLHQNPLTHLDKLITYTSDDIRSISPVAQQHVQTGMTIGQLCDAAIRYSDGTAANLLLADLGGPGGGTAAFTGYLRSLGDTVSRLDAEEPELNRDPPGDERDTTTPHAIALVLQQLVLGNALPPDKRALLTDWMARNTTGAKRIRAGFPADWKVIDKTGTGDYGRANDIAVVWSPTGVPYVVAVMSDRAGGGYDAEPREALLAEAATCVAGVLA

TEM-1 WT = TEM-1 WT (Escherichia coli, UniProt P62593); assay type: biochemical; set-up: 24 to 286 of TEM-1 (P62593); His tag with TEV cleavage site (N); made in house; host or cells: E. coli BL21 (DE3) pLysS; conditions: clavulanic acid, TEM-1 WT
[11] = test system: E. coli KA797 cells carrying pUK21 with TEM-1 WT (Sec); experiment: microbe, parasite or virus in culture; assay type: cell-based; conditions: in combination with 100 μg/ml carbenicillin
[12] = test system: E. coli KA797 cells carrying pUK21 with KPC-2 (Tat); experiment: microbe, parasite or virus in culture; assay type: cell-based; conditions: in combination with 100 μg/ml carbenicillin
[13] = test system: E. coli KA797 cells carrying pUK21 with CTX-M-14 Y105R; assay type: cell-based, Escherichia coli; conditions: in combination with 100 μg/ml carbenicillin
[14] = test system: CC1(C)S[C@@H]2[C@H](NC(=O)C(C(=O)O)c3ccccc3)C(=O)N2[C@H]1C(=O)O; experiment: purified protein, by the assay type; conditions: pH 6.4; 25.0 °C
[15] = test system: CC1(C)S[C@@H]2[C@H](NC(=O)[C@H](N)c3ccccc3)C(=O)N2[C@H]1C(=O)O; experiment: purified protein, by the assay type; conditions: pH 6.4; 25.0 °C
[16] = test system: CC1(C)S[C@@H]2[C@H](NC(=O)C(C(=O)O)c3ccccc3)C(=O)N2[C@H]1C(=O)O; experiment: purified protein, by the assay type; conditions: pH 6.4; 25.0 °C; remark: listed apart in the source
[17] = test system: O=C(Cc1cccs1)N[C@@H]1C(=O)N2C(C(=O)O)=C(/C=C/c3ccc([N+](=O)[O-])cc3[N+](=O)[O-])CS[C@H]12; experiment: purified protein, by the assay type; conditions: pH 6.4; 25.0 °C

O=C(O)[C@H]1/C(=C/CO)O[C@@H]2CC(=O)N21 [clavulanic acid]
Significance of average fitness ([1]; CTX-M-14 AA 105 Arg): -
Significance of average fitness ([1]; CTX-M-14 AA 105 Gly): +
Significance of average fitness ([1]; CTX-M-14 AA 105 Trp): +
WT abs Fi 1 (absolute fitness of wild type, Replicate 1) ([1]; CTX-M-14 WT (Tyr 105)): -0.544
WT abs Fi 2 (absolute fitness of wild type, Replicate 2) ([1]; CTX-M-14 WT (Tyr 105)): -0.635
MIC of inhibitor [2]: 2 µg/mL
MIC of inhibitor [3]: 1 µg/mL
Significance of average fitness ([4]; AA 105 Ala (BlaC I105A)): +
Fi AVG (average fitness) ([4]; AA 105 Ala (BlaC I105A), relative to WT Ile): 0.441
Significance of average fitness ([4]; AA 105 Arg (BlaC I105R)): +
Fi AVG (average fitness) ([4]; AA 105 Arg (BlaC I105R), relative to WT Ile): 0.649
Fi AVG (average fitness) ([4]; AA 105 Asn (BlaC I105N), relative to WT Ile): -0.00565
Fi AVG (average fitness) ([4]; AA 105 Asp (BlaC I105D), relative to WT Ile): -0.195
Fi AVG (average fitness) ([4]; AA 105 Cys (BlaC I105C), relative to WT Ile): 0.048
Fi AVG (average fitness) ([4]; AA 105 Gln (BlaC I105Q), relative to WT Ile): -0.027
Fi AVG (average fitness) ([4]; AA 105 Glu (BlaC I105E), relative to WT Ile): -0.066
Significance of average fitness ([4]; AA 105 Gly (BlaC I105G)): +
Fi AVG (average fitness) ([4]; AA 105 Gly (BlaC I105G), relative to WT Ile): 0.325
Fi AVG (average fitness) ([4]; AA 105 His (BlaC I105H), relative to WT Ile): 0.091
Fi AVG (average fitness) ([4]; AA 105 Ile (BlaC WT, reference)): 0.000
Fi AVG (average fitness) ([4]; AA 105 Leu (BlaC I105L), relative to WT Ile): 0.152
Fi AVG (average fitness) ([4]; AA 105 Lys (BlaC I105K), relative to WT Ile): 0.212
Fi AVG (average fitness) ([4]; AA 105 Met (BlaC I105M), relative to WT Ile): 0.159
Significance of average fitness ([4]; AA 105 Phe (BlaC I105F)): +
Fi AVG (average fitness) ([4]; AA 105 Phe (BlaC I105F), relative to WT Ile): 0.271
Fi AVG (average fitness) ([4]; AA 105 Pro (BlaC I105P), relative to WT Ile): 0.200
Significance of average fitness ([4]; AA 105 Ser (BlaC I105S)): +
Fi AVG (average fitness) ([4]; AA 105 Ser (BlaC I105S), relative to WT Ile): 0.440
Significance of average fitness ([4]; AA 105 Thr (BlaC I105T)): +
Fi AVG (average fitness) ([4]; AA 105 Thr (BlaC I105T), relative to WT Ile): 0.421
Fi AVG (average fitness) ([4]; AA 105 Trp (BlaC I105W), relative to WT Ile): 0.208
Significance of average fitness ([4]; AA 105 Tyr (BlaC I105Y)): +
Fi AVG (average fitness) ([4]; AA 105 Tyr (BlaC I105Y), relative to WT Ile): 0.298
Fi AVG (average fitness) ([4]; AA 105 Val (BlaC I105V), relative to WT Ile): 0.071
WT abs Fi 1 ([4]; absolute fitness of BlaC WT (Ile 105), replicate 1): -0.077
WT abs Fi 2 ([4]; absolute fitness of BlaC WT (Ile 105), replicate 2): 0.311
MIC of inhibitor [5]: 4 µg/mL
MIC of inhibitor [6]: 1 µg/mL
MIC of inhibitor [7]: 1 µg/mL
MIC of inhibitor [8]: 32 µg/mL
k2 (TEM-1 Y105G): 9.6 10^−2 s^−1
k3 (TEM-1 Y105G): 3.1 10^−3 s^−1
MIC of inhibitor [9]: 2 µg/mL
MIC of inhibitor [10]: 0.5 µg/mL
k1 (BlaC WT): 1e+06 M⁻¹ s⁻¹
k2 (BlaC WT): 4.5 and 4.5 10^−2 s^−1
k3 (BlaC WT): 1.8
k2 (TEM-1 WT; simulation Eq 2/8): 8 10^−2 s^−1
k3 (TEM-1 WT; simulation Eq 2/8): 1.8 10^−3 s^−1
k1 (TEM-1 WT; simulation Eq 8): 900000 M⁻¹ s⁻¹
MIC of inhibitor [11]: 2 µg/mL
MIC of inhibitor [12]: 1 µg/mL
MIC of inhibitor [13]: 1 µg/mL

(Escherichia coli)
Km [14]: 10.0 ± 0.7 µM
kcat [14]: 92 ± 2 s⁻¹
kcat/Km [14]: 9.15e+06 ± 660000 M⁻¹ s⁻¹
Km [15]: 76 ± 2 µM
kcat [15]: 103 ± 1 s⁻¹
kcat/Km [15]: 1.36e+06 ± 80000 M⁻¹ s⁻¹
Km [16]: 20 ± 2 µM
kcat [16]: 31 ± 2 s⁻¹
kcat/Km [16]: 1.55e+06 ± 180000 M⁻¹ s⁻¹
Km [17]: 79 ± 1 µM
kcat [17]: 576 ± 5 s⁻¹
kcat/Km [17]: 7.31e+06 ± 80000 M⁻¹ s⁻¹
